Assay results as given in article PMC9099842, “Isolation of Potato Endophytes and Screening of Chaetomium globosum Antimicrobial Genes” (International Journal of Molecular Sciences, 2022).
Ends that are not written are not given here.

Tests used:
[1] = tested on: C. michiganensis; assay: Pathogenicity assay (control effect on tomato plants); type: in vivo, Clavibacter michiganensis; details: stem acupuncture inoculation of C. michiganensis mixed with equal volume of peptide at 2× MIC, greenhouse, at 7 d; for Disease Index: letters = differences at p < 0.05; for Control Efficacy (%): relative to PBS buffer group
Method: C. michiganensis was cultured to the logarithmic growth phase, then the pathogenic bacteria were mixed with an equal volume of antimicrobial peptides at 2× MIC, and finally tomato plants were inoculated using the stem acupuncture method. The positive control was mixed with an equal volume of polymyxin B and pathogenic bacteria, and the negative control was mixed with an equal volume of PBS buffer and pathogenic bacteria. After inoculation, the tomato plants were cultured under greenhouse conditions, and the disease incidence was observed and recorded. The equation of disease grading criteria, incidence rate, and disease index are found in Supplementary Method S5. […]
Peptide purification procedure
B. subtilis was grown in 300 mL liquid LB medium containing kanamycin (10 mg/L) and incubated at 180 r/min, 37 °C for 72 h. The supernatant was collected by centrifugation at […]
10,000× g for 25 min at 4°C. […]
Pathogenecity assay equation
C. michiganensis disease grading criteria are as follows, grade 0: no wilting or stem necrosis of leaves (or cotyledons); grade 1: mild yellowing or wilting of leaves (or cotyledons); grade 2: moderate wilting or wilting of leaves (or cotyledons) and mild necrosis of stem; Grade 3: severe wilting of leaves (or cotyledons) or severe necrosis of stem; Grade 4: plant death. The formulas for incidence rate, disease index and control efficacy are as follows: Incidence rate

[2] = tested on: X. oryzae pv. oryzae; type: cell-based, Xanthomonas oryzae pv. oryzae; details: purified peptide, 96-well plate, LB, 28 °C, 12 h
[3] = tested on: X. oryzae pv. oryzicola; type: cell-based, Xanthomonas oryzae pv. oryzicola; details: purified peptide, 96-well plate, LB, 28 °C, 12 h
[4] = tested on: C. fangii; assay: Minimum inhibitory concentration (MIC) assay; type: cell-based, Clavibacter fangii; details: purified peptide, 96-well plate, LB, 28 °C, 12 h
Method: (§1) The indicator bacteria were inoculated in LB liquid medium (OD600 ≈ 0.8–1.0) and then diluted with the indicator bacteria (OD600 ≈ 0.02–0.05). After that, we added 40 μL of diluted indicator bacteria solution to 96-well titer plates. The AMPs were diluted through a series of concentration gradients, and then an equal volume of peptides was added to the above 96-well plate and incubated at 28 °C for 12 h. […] To determine the time-kill assay, the purified antimicrobial peptide concentration was adjusted to 2× MIC concentration, and then added to a 96-well plate in equal volume with the indicator bacteria, with at least 3 wells for each concentration. After mixing the liquid evenly, it was incubated at 28 °C for 2 h, 4 h, 6 h, 8 h, 10 h, 12 h, and 24 h, and then the OD value was obtained at 600 nm.

[5] = tested on: X. campestris pv. Holcicola; assay: Minimum inhibitory concentration (MIC) assay; type: cell-based, Xanthomonas campestris pv. Holcicola; details: purified peptide, 96-well plate, LB, 28 °C, 12 h
Method: as §1

[6] = tested on: C. michiganensis; assay: Minimum inhibitory concentration (MIC) assay; type: cell-based, Clavibacter michiganensis; details: purified peptide, 96-well plate, LB, 28 °C, 12 h
Method: as §1

[7] = tested on: Gram-negative bacteria and Gram-positive bacteria; assay: MIC assay, range over all tested strains; type: cell-based; details: purified peptide, 96-well plate, 28 °C, 12 h; range over Gram-negative and Gram-positive strains of Table 4
Method: as §1

[8] = tested on: C. fangii; type: cell-based, Clavibacter fangii
[9] = tested on: C. michiganensis; type: cell-based, Clavibacter michiganensis
[10] = tested on: X. oryzae pv. oryzicola; type: cell-based, Xanthomonas oryzae pv. oryzicola; details: 20 μL extracellular peptides on filter paper, 28 °C, 5-7 h, mean ± SD, three independent experiments
[11] = tested on: X. oryzae pv. oryzae; type: cell-based, Xanthomonas oryzae pv. oryzae; details: 20 μL extracellular peptides on filter paper, 28 °C, 5-7 h, mean ± SD, three independent experiments
[12] = tested on: Xanthomonas campestris pv. Holcicola; type: cell-based
[13] = tested on: R. solani; type: cell-based, Rhizoctonia solani
[14] = tested on: B. cinerea; type: cell-based, Botrytis cinerea
[15] = tested on: F. graminearum; type: cell-based, Fusarium graminearum; details: 200 μL extracellular peptide per well, 28 °C, 2–4 days, vs PBS
[16] = tested on: Gram-positive and Gram-negative bacteria; type: physicochemical
[17] = tested on: C. michiganensis, C. fangii, X. oryzae pv. oryzae and X. oryzae pv. oryzicola; type: physicochemical; details: read-out agar diffusion test; for antibacterial activity after heat treatment (thermal stability), 4–75 °C: heated 30 min at 25, 50, 75 °C (4 °C control); for antibacterial activity after heat treatment (thermal stability), 100 °C: heated at 100 °C for 30 min
[18] = tested on: four tested strains (C. fangii, X. oryzae pv. oryzicola, X. oryzae pv. oryzae, C. michiganensis); type: cell-based; details: peptides at their MICs, 28 °C, OD 600 nm; after 12 h of treatment
[19] = tested on: X. oryzae pv. oryzae; type: cell-based, Xanthomonas oryzae pv. oryzae; details: X. oryzae pv. oryzae co-incubated with peptide 2 h at 28 °C; MIC concentration
[20] = tested on: C. michiganensis; type: cell-based, Clavibacter michiganensis; remark: listed apart in the source
[21] = tested on: porcine erythrocytes; details: 5× MIC, 37 °C, 1 h, absorbance 385 nm, 0.1% Triton X-100 = 100%, PBS = 0%

Substance | Incidence (%) [1] | Disease Index [1] | Control Efficacy (%) [1] | antimicrobial diameter (bacteriostatic spectrum) [8] | antimicrobial diameter (bacteriostatic spectrum) [9] | antimicrobial diameter (bacteriostatic spectrum) [10] | antimicrobial diameter (bacteriostatic spectrum) [11] | inhibition of bacterial growth (in words) [12] | inhibition of mycelia growth (in words) [13] | inhibition of mycelia growth (in words) [14] | inhibition of mycelia growth (in words) [15] | antibacterial activity after UV treatment (UV stability) [16] | antibacterial activity after heat treatment (thermal stability), 4–75 °C [17] | antibacterial activity after heat treatment (thermal stability), 100 °C [17] | bacterial growth in time-kill curve [18] | cell membrane damage by SEM [19] | cell membrane damage by SEM [20] | also measured
LAVHHLHSIRGRHHSCTIAQTQANHRHNSYQPNNSSCLAKETDLPTTRSTPATTSSTAPARKSPPASPAPTRQRLCPSPPRGPVSSRHPRRRGQARGRTRAAGVRRTKGYGGKCV [CgR2150] | 13.33 c % | 5.83 | 92.56 b % | 1.21 ± 0.037 cm | 1.19 ± 0.033 cm | 1.29 ± 0.034 cm | 1.39 ± 0.036 cm | significantly inhibit the growth | significantly inhibit the mycelia growth | significantly inhibit the mycelia growth | significantly inhibit the mycelia growth | stable bacteriostatic activity | obvious antibacterial activity | lost their activity | hardly grew | significantly shrunken and morphologically abnormal | severely damaged, with obvious gaps and ruptures | MIC [2]: 10 µg/mL; MIC [3]: 10 µg/mL; MIC [4]: 15 µg/mL; MIC [5]: 25 µg/mL; MIC [6]: 18 µg/mL; MIC, range over the five tested bacteria [7]: 10 to 25 µg/mL; hemolytic activity [21]: 0.32%
LAVPNFEPPTRTTCPAPTSPGNPCGPPPPASQTRRPPFHPTSPLRR (cysteines drawn unpaired) [CgR3101] | 16.67 b % | 7.50 b | 90.43 c % | 1.15 ± 0.029 cm | 1.04 ± 0.033 cm | 1.26 ± 0.024 cm | 1.19 ± 0.036 cm | significantly inhibit the growth | significantly inhibit the mycelia growth | significantly inhibit the mycelia growth | significantly inhibit the mycelia growth | stable bacteriostatic activity | obvious antibacterial activity | lost their activity | hardly grew | significantly shrunken and morphologically abnormal | severely damaged, with obvious gaps and ruptures | –
Polymyxin B [reference compound] | 10.00 d % | 3.33 c | 95.75 a % | – | – | – | – | – | – | – | – | – | – | – | – | – | – | –
